The experiment has as its system Plasmodium berghei. In words: Luciferase/luciferin-expressing antifolate-resistant parasites were used to infect a culture of HepG2 cells that were pre-incubated with compounds. Infected hepatocytes emit light due to the luciferase reaction. Assay results are presented as the percent inhibition of light emission compared to control. […]. In kind it is functional. As to conditions: sporozoite; for IC90: read-out: LUCIFERASE INFECTION ASSAY - IC90.

The mark [1] stands for this setting: read-out: LUCIFERASE INFECTION ASSAY - IC50.

IC50 and IC90 data for 38 compounds are collected here from ChEMBL document CHEMBL4483862, “Open-source discovery of chemical leads for next-generation chemoprotective antimalarials” (2018).

Where only a bound is given, the exact number is not on record here.

Regarding `Cc1nn(-c2ccccc2)c2sc(C(=O)NNc3nc(CN4CCOCC4)nc4scc(-c5ccccc5)c34)cc12`, the IC90 was more than 10 µM. Besides, the IC50 (HEPG2TOX_HILL_SLOPE 1.59, 8.29, HEPG2TOX_R_SQUARED 0.901, 0.855, PBLUC_HILL_SLOPE 12, PBLUC_R_SQUARED 0.591, read-out: LUCIFERASE INFECTION ASSAY - IC50) was found to be 8.46 µM.

With `O=C(Nc1nc2ccccc2[nH]1)C1CCN(c2ncc(C(F)(F)F)cc2Cl)CC1`, the IC90 is 3.95 µM. For the same compound, the IC50 (PBLUC_HILL_SLOPE 12.1, PBLUC_R_SQUARED 0.351, read-out: LUCIFERASE INFECTION ASSAY - IC50) amounted to 3.29 µM.

With `CSc1sc(C(=O)OC2CCCCC2)c2c1C(=O)CC(C)(C)C2`, the IC90 is more than 9.36 µM. In addition, for the setting “FFLUC_HILL_SLOPE 35.3, FFLUC_R_SQUARED 0.0335, read-out: LUCIFERASE INFECTION ASSAY - IC50”, the half-inhibitory concentration (IC50) is more than 9.36 µM.

As to `CCOC(=O)c1cc(-c2csc(Nc3c(C)cc(C)cc3C)n2)on1`, the IC90 is more than 9.23 µM. Further, the IC50 (PBLUC_HILL_SLOPE 14.6, PBLUC_R_SQUARED 0.157, read-out: LUCIFERASE INFECTION ASSAY - IC50) was found to be 9.07 µM.

With `COc1ccccc1Oc1ccc(S(=O)(=O)N(c2cccnc2)S(=O)(=O)c2ccc(Oc3ccccc3OC)cc2)cc1`, the IC90 was more than 10 µM. Under setting [1], the IC50 was more than 10 µM.

In the case of `Cc1c(N/N=C(/C(=O)Nc2ccccc2)C(=O)c2ccccc2)c(=O)n(-c2ccccc2)n1C`, the IC90 is more than 10 µM. Under “PBLUC_HILL_SLOPE 4.97, PBLUC_R_SQUARED 0.638, read-out: LUCIFERASE INFECTION ASSAY - IC50”, the IC50 was determined as 8.09 µM.

Consider `COc1ccc2c(-c3ccccc3)cc(SC(C)C(=O)N3CCNC3=O)nc2c1` (stereo unspecified), for which the IC90 worked out at 1.25 µM. Moreover, the IC50 (FFLUC_HILL_SLOPE 2.47, FFLUC_R_SQUARED 0.615, PBLUC_HILL_SLOPE 18.2, PBLUC_R_SQUARED 0.514, read-out: LUCIFERASE INFECTION ASSAY - IC50) came out at 1.11 µM.

Regarding `CCOc1cc(C(=O)Oc2cccc(Cl)c2Cl)cc(OCC)c1OCC`, the 90% effect concentration (IC90) was more than 10 µM. Further, the IC50 (FFLUC_HILL_SLOPE 1.16, FFLUC_R_SQUARED 0.617, read-out: LUCIFERASE INFECTION ASSAY - IC50) is more than 10 µM.

In the case of `CN1CCN(c2ccc(-c3cn4c(-c5ccc(F)c(Cl)c5)cnc4cn3)cn2)CC1`, the IC90 was more than 7.8 µM. For the same compound, under setting [1], the IC50 was more than 7.8 µM.

On to `COCCCn1c(-c2ccc(C(C)(C)C)cc2)n[nH]c1=S`, for which the IC90 is more than 10.8 µM. Moreover, the IC50 (PBLUC_HILL_SLOPE 2.97, PBLUC_R_SQUARED 0.207, read-out: LUCIFERASE INFECTION ASSAY - IC50) was 6.76 µM.

On to `O=C1c2ccccc2C(O)(C#Cc2ccccc2)N1c1ccccc1` (stereo unspecified), for which the IC90 turned out to be 8.45 µM. Further, under “HEPG2TOX_HILL_SLOPE 4.52, HEPG2TOX_R_SQUARED 0.977, PBLUC_HILL_SLOPE 3.23, PBLUC_R_SQUARED 0.385, read-out: LUCIFERASE INFECTION ASSAY - IC50”, the IC50 was 4.28 µM.

Regarding `Cc1cc(C)c2c(C)c(C(=O)Nc3cc(S(=O)(=O)N4CCCCC4)ccc3N(C)C)sc2n1`, the IC90 is more than 10 µM. Moreover, the IC50 under setting [1] was found to be 6.67 µM.

In the case of `CC1=C2CCC(C)CC23C2C(=O)N(Cc4ccc(Cl)cc4)C(=O)C2C1C1C(=O)N(Cc2ccc(Cl)cc2)C(=O)C13` (stereo unspecified), the IC90 was more than 5.71 µM. Besides, where the note is “HEPG2TOX_HILL_SLOPE 0.355, HEPG2TOX_R_SQUARED 0.414, PBLUC_HILL_SLOPE 1.68, PBLUC_R_SQUARED 0.433, read-out: LUCIFERASE INFECTION ASSAY - IC50”, the IC50 is 3.28 µM.

`Cc1cc(C(=O)NC2CC2)c(C)n1-c1ccc(C(C)C)cc1`: the IC90 was more than 10 µM. In addition, the IC50 (PBLUC_HILL_SLOPE 2.98, PBLUC_R_SQUARED 0.567, read-out: LUCIFERASE INFECTION ASSAY - IC50) amounted to 6.28 µM.

For `Cc1nn(-c2ccccc2)c(Cl)c1/C=N/Nc1nc2ccccc2[nH]1`, the IC90 is more than 10 µM. Moreover, the IC50 (PBLUC_HILL_SLOPE 3.35, PBLUC_R_SQUARED 0.119, read-out: LUCIFERASE INFECTION ASSAY - IC50) was 7.2 µM.

As to `Cc1cc(C(=O)COC(=O)c2ccc3[nH]c4c(c3c2)CCCC4)c(C)n1Cc1ccccc1Cl`, the IC90 is 4.61 µM. Further, the IC50 (PBLUC_HILL_SLOPE 2.26, PBLUC_R_SQUARED 0.534, read-out: LUCIFERASE INFECTION ASSAY - IC50) is 1.74 µM.

With `O=C(Nc1ccccc1)c1ccc(C2(CNCc3cccnc3)CC2)cc1`, the IC90 worked out at 0.637 µM. Also, under “PBLUC_HILL_SLOPE 3.24, PBLUC_R_SQUARED 0.623, read-out: LUCIFERASE INFECTION ASSAY - IC50”, the IC50 was determined as 0.323 µM.

On to `COCc1cccc(-c2cc(-c3cc4ccccc4s3)cnc2N)c1`, for which the IC90 is more than 9.53 µM. For the same compound, the IC50 (HEPG2TOX_HILL_SLOPE 6.43, HEPG2TOX_R_SQUARED 0.192, PBLUC_HILL_SLOPE 1.27, PBLUC_R_SQUARED 0.564, read-out: LUCIFERASE INFECTION ASSAY - IC50) amounted to 5.74 µM.

Take `CS(=O)(=O)c1ccc(Oc2ccc(-n3ccnc3)cc2)c([N+](=O)[O-])c1`: the IC90 was more than 10 µM. The IC50 under setting [1] is more than 10 µM.

On to `CC[n+]1c(/C=C/c2ccc(SC)cc2)ccc2ccccc21`, for which the 90% effect concentration (IC90) was more than 7.62 µM. Moreover, the IC50 (PBLUC_HILL_SLOPE 11.6, PBLUC_R_SQUARED 0.0577, read-out: LUCIFERASE INFECTION ASSAY - IC50) is more than 7.62 µM.

`Cc1cccc(C(=O)Nc2nc3ccccn3c2C(=O)NC(C)C)c1`: the concentration for an effect of 90% (IC90) was more than 9.81 µM. For the same compound, the IC50 (HEPG2TOX_HILL_SLOPE 2.5, HEPG2TOX_R_SQUARED 0.601, PBLUC_HILL_SLOPE 2.39, PBLUC_R_SQUARED 0.0938, read-out: LUCIFERASE INFECTION ASSAY - IC50) was 6.28 µM.

Take `O=C(N/N=C1/C(=O)c2cccc3cccc1c23)c1cccc(S(=O)(=O)N2CCCCC2)c1`: the IC90 was more than 10 µM. Also, the IC50 under setting [1] is more than 10 µM.

As to `Cc1cccc(N2CCN(CC(=O)c3ccc[nH]3)CC2)c1C`, the IC90 is more than 10 µM. Also, under setting [1], the IC50 was more than 10 µM.

Consider `O=C(CSc1ccc(S(=O)(=O)N2CCOCC2)cn1)NC(c1ccccc1)c1cccs1` (stereo unspecified), for which the IC90 is more than 10 µM. In addition, under setting [1], the IC50 is more than 10 µM.

Consider `CC(Sc1nc2ccccc2c(=O)n1-c1ccccc1F)c1nnc(-c2cccs2)o1` (stereo unspecified), for which the IC90 was more than 10 µM. Also, for the setting “HEPG2TOX_HILL_SLOPE 12.8, HEPG2TOX_R_SQUARED 0.22, PBLUC_HILL_SLOPE 16.4, PBLUC_R_SQUARED 0.485, read-out: LUCIFERASE INFECTION ASSAY - IC50”, the IC50 was 8.88 µM.

Consider `O=C(Cc1ccsc1)Nc1nc(-c2ccccn2)cs1`, for which the IC90 turned out to be 8.87 µM. Besides, under “PBLUC_HILL_SLOPE 6.07, PBLUC_R_SQUARED 0.668, read-out: LUCIFERASE INFECTION ASSAY - IC50”, the IC50 came to 6.18 µM.

Consider `CC(C)CCNCC(O)CON=C1c2ccccc2-c2ccccc21` (stereo unspecified), for which the IC90 is more than 10 µM. Besides, the IC50 under setting [1] is more than 10 µM.

Take `Cc1c(-c2ccccc2)oc2c(C(=O)NCc3ccc(Cn4cccn4)cc3)cccc2c1=O`: the IC90 is more than 10 µM. For the setting “FFLUC_HILL_SLOPE 3.81, FFLUC_R_SQUARED 0.0734, PBLUC_HILL_SLOPE 3.95, PBLUC_R_SQUARED 0.349, read-out: LUCIFERASE INFECTION ASSAY - IC50”, the IC50 came out at 7.72 µM.

For `O=C1C=CC(=O)N1c1ccccc1Cl`, the IC90 is more than 15.9 µM. Also, the IC50 under setting [1] amounted to 6.18 µM.

Take `CCN(c1ccccc1)S(=O)(=O)c1ccc(C(=O)N2CCN(c3cccc(C)c3C)CC2)cc1`: the IC90 was determined as 5.07 µM. Also, under setting [1], the IC50 worked out at 4.15 µM.

Regarding `COc1ccc(-c2cnn3c(N)c(-c4cccc(Cl)c4)cnc23)cc1OC`, the IC90 was more than 8.67 µM. Under “HEPG2TOX_HILL_SLOPE 8.92, HEPG2TOX_R_SQUARED 0.943, PBLUC_HILL_SLOPE 1.73, PBLUC_R_SQUARED 0.738, read-out: LUCIFERASE INFECTION ASSAY - IC50”, the 50% inhibitory concentration (IC50) came out at 2.75 µM.

On to `CNS(=O)(=O)c1ccc(CNc2ncnc3cc(-c4ccc(OC)cc4)sc23)s1`, for which the IC90 amounted to 2.1 µM. Also, the IC50 under setting [1] is 0.653 µM.

Regarding `CC(C)(C)c1cc(C(=O)Nc2cc(-c3cccs3)nn2-c2ccc(F)cc2)n(Cc2ccccc2)n1`, the IC90 is more than 6.61 µM. Moreover, the IC50 (HEPG2TOX_HILL_SLOPE 6.06, HEPG2TOX_R_SQUARED 0.212, read-out: LUCIFERASE INFECTION ASSAY - IC50) was more than 6.61 µM.

Take `Cc1ccc(SCc2ccccc2C(=O)Nc2cc(Cl)ccc2O)cc1`: the IC90 is more than 8.6 µM. Also, under setting [1], the IC50 was more than 8.6 µM.

Consider `CCOc1cccc(-c2cn3c(-c4cccc(O)c4)cnc3cn2)c1`, for which the concentration for an effect of 90% (IC90) came to 9.74 µM. Moreover, under “HEPG2TOX_HILL_SLOPE 1.42, HEPG2TOX_R_SQUARED 0.867, PBLUC_HILL_SLOPE 1.9, PBLUC_R_SQUARED 0.651, read-out: LUCIFERASE INFECTION ASSAY - IC50”, the IC50 amounted to 3.05 µM.

`CCn1nc(C(=O)NCc2ccc(OC)cc2)c2c1CCN(C(=O)C1Cc3ccccc3O1)C2` (stereo unspecified): the IC90 worked out at 6.24 µM. Also, the IC50 (HEPG2TOX_HILL_SLOPE 2.42, HEPG2TOX_R_SQUARED 0.906, PBLUC_HILL_SLOPE 2.97, PBLUC_R_SQUARED 0.096, read-out: LUCIFERASE INFECTION ASSAY - IC50) came out at 2.98 µM.

As to `CCSC1=N/C(=C\c2cc(C(C)(C)C)c(O)c(C(C)(C)C)c2)C(=O)S1`, the IC90 was more than 8.74 µM. In addition, the IC50 (FFLUC_HILL_SLOPE 2.27, FFLUC_R_SQUARED 0.423, read-out: LUCIFERASE INFECTION ASSAY - IC50) is more than 8.74 µM.

For the compound `Cc1sc2nc(-c3cccnc3)nc(Nc3ccc(N(C)C)nc3)c2c1C`, the IC90 amounted to 5.59 µM. The IC50 (PBLUC_HILL_SLOPE 6.08, PBLUC_R_SQUARED 0.68, read-out: LUCIFERASE INFECTION ASSAY - IC50) came out at 3.9 µM.

As a reminder, the IC50 is the midpoint of a concentration-inhibition curve. The IC90 is the point of the concentration-response curve where the effect stands at 90%.
